Experiments:
Sortilin [1] = molecular target: T1, Sortilin (Mus musculus, UniProt Q6PHU5); assay: Creoptix (GCI) binding kinetics, mouse Sortilin; conditions: Species Mouse, screened at 1 µM, 25 degrees Celsius
T1 construct: purchased Bio-Techne Ltd 2934-ST-050
T1 sequence (Q6PHU5 76-753 limits assumed): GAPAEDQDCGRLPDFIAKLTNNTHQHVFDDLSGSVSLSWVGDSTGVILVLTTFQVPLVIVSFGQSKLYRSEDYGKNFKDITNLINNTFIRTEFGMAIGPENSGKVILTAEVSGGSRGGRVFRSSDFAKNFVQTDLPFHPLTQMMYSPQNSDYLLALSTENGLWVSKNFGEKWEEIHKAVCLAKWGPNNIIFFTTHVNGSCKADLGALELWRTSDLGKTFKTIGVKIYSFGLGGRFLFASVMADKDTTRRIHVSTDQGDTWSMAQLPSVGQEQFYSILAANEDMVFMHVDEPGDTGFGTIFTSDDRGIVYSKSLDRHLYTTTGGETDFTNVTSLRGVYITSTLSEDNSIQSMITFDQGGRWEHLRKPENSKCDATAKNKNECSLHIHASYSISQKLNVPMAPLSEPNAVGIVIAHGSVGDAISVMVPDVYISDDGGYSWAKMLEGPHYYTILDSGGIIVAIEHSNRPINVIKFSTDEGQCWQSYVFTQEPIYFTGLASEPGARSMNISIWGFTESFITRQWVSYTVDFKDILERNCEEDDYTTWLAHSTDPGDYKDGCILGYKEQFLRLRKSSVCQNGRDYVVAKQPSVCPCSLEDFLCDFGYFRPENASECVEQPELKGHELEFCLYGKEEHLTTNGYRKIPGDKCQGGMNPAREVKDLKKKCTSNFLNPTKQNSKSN
Procedure: Creoptix (GCI) method - using SEQ ID NO.4 (Murine sortillin)
A protein, bound to a surface, is bathed in a solution containing potential ligands giving rise to binding kinetics to generate Kon and Koff rates, as well as a Kd.
All buffers described were filtered using a 0.2µm filter (Product number: 10300461, Nalgene) and degassed for 15 minutes prior to use.
A flow cell temperature of 25 degrees Celsius was used throughout the experiment.
A 4PCH chip was conditioned across all flow cells using 0.2 X concentration running buffer (running buffer composition: 1XHBS-N, pH 7.4, 3.4 mM EDTA, 1% DMSO) using pre-set conditioning wizard (WAVE control software) injecting: 0.1 M borate, 1 M NaCl (pH 9) followed by three start-up injections of 0.2 X running buffer.
A buffer exchange was performed and 1x running buffer (1XHBS-N, pH 7.4, 3.4 mM EDTA, 1% DMSO) used during the immobilisation procedure: An initial injection of EDC/NHS (mixed in 1:1 ratio) was performed across all 4-flow cells to activate the surface for amine coupling of ligands.
Recombinant Sortilin aliquots were thawed quickly by hand and centrifuged at 13,300 rpm for 10 minutes. A 10 µg/ml protein solution was then made in pH 5.0 acetate and injected once for 20 minutes over flow-cells 2, 3 and 4 for human, human (flow cells 2 & 3), and mouse Sortilin respectively followed by a 60 second dissociation period.
A final 7-minute passivation injection of 50 mM tris was used across all flow cells.
A flow rate of 10 µl/min was used for all conditioning and immobilisation cycles.
Compounds were screened at 1 µM using the in-built 'intermediate binders' settings: 100 ul/min, 45 s baseline, 25 s association, 300 s dissociation, with blanks every 5th sample and a DMSO correction (1.5 % DMSO at the start and end of the experiment as well as every 20 cycles. An acquisition rate of 10 Hz was used throughout the experiment.
Compounds were screened at a final assay concentration of 1 µM and a final DMSO concentration was 1 %. To achieve this, compounds were diluted in DMSO from 10 mM stocks to 100 µM (100 x final assay concentration) then diluted 1:100 in running buffer which contained no DMSO to establish a final assay concentration of compound of 1 µM and a final DMSO concentration of 1 % [DMSO].
Compounds and DMSO were mixed by plate shaking at 1000 rpm for 60 seconds using a Bioshake instrument.
A flow rate of 100 µl/min was used throughout the experiment.
Data was evaluated using the RAPID kinetic analysis tool in the GCI WAVE_control software with data fitted using a standard 1:1 kinetic BioModel.

Sortilin [2] = molecular target: T2, Sortilin (Homo sapiens, UniProt Q99523); assay: Creoptix (GCI) binding kinetics, human Sortilin; conditions: Species Human, screened at 1 µM, 25 degrees Celsius
T2 construct: purchased Bio-Techne Ltd 3154-ST-050
T2 sequence (Q99523 78-755 limits assumed): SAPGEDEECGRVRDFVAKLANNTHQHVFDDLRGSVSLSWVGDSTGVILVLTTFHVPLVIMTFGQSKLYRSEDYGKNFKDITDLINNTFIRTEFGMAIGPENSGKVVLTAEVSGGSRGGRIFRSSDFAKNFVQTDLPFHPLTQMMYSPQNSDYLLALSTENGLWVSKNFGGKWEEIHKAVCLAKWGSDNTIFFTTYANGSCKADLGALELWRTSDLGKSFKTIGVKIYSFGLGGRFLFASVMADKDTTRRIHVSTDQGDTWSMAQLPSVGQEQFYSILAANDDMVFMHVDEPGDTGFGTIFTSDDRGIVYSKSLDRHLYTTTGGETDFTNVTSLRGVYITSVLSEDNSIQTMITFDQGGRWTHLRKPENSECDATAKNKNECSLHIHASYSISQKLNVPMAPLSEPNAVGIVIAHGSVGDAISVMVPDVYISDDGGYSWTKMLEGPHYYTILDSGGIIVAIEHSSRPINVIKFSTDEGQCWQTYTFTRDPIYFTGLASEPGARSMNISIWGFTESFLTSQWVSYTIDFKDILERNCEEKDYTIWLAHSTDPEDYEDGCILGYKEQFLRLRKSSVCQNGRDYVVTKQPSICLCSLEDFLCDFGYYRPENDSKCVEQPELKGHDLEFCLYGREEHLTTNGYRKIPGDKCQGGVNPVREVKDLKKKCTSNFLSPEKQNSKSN
Summary of the method: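 Grating-coupled interferometry at 25 °C with amine-coupled recombinant human or mouse Sortilin, running buffer HBS-N pH 7.4, 3.4 mM EDTA, 1% DMSO. Compounds injected at 1 µM (1% DMSO) at 100 µl/min, 25 s association, 300 s dissociation; kon, koff and Kd from a 1:1 kinetic model.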

| SMILES | Kd (Sortilin [1]; Form of Compound Free acid) | Kd (Sortilin [1]; Form of Compound Mesylate salt) | Kd (Sortilin [2]; Form of Compound Free acid) | Kd (Sortilin [2]; Form of Compound Mesylate salt) |
| --- | --- | --- | --- | --- |
| C[C@@H](N[C@@H](CCC(C)(C)C)C(=O)O)c1ccc2c(c1)OCCC2 [Example 9] | 60 nM | 59.5 nM | 227 nM | 64.9 nM |
| C[C@@H](N[C@@H](CCC(C)(C)C)C(=O)O)c1ccc2c(c1)CCCO2 [Example 52] | – | 129 nM | 384 nM | 133 nM |
| CC(C)(C)CC[C@H](NCc1ccc2c(c1)COCC2)C(=O)O [Example 3, (S)-2-((isochroman-7-ylmethyl)amino)-5,5-dimethylhexanoic acid] | 65 nM | – | 237 nM | 52 nM |
| C[C@H](N[C@@H](CCC(C)(C)C)C(=O)O)c1ccc2c(c1)CCCO2 [Example 50] | 258 nM | 258 nM | 120 nM | 221 nM |

— patent EP4342530A1, “SORTILIN MODULATORS” (Insusense ApS, priority 2022, dated 2024)
